In this test the test system is Reduced glutathione in salivary gland cell clusters (SGm). As to the kind of experiment: Glutathione assay in salivary gland tissue chip, 4 days post-radiation (15 Gy); also first screen of Selleck library at 100 μM. Type of test: cell-based, mouse. Conditions: first screen of Selleck library at 100 μM, 15 Gy, 4 days post-radiation. An excerpt: A salivary gland tissue chip was leveraged for high-content drug screening to identify novel radioprotective compounds (Song Y et al., Commun Biol., 2021, 4). The chip platform consists of an array of near-spherical microbubble (MB) cavities formed in poly(dimethylsiloxane) (PDMS). Each chip, containing ~50 MBs, affixed within wells of a 96-well plate (FIG. 1C). Primary salivary gland cell clusters (FIG. 1A), suspended in a poly(ethylene glycol) (PEG) hydrogel precursor and MMP-degradable peptide crosslinker solution together with the photoinitiator LAP, were applied to the chip allowing the clusters to deposit into the MBs (FIG. 1D). In situ polymerization of the hydrogel was achieved using long-wave, low intensity UV light. Over time, the cell clusters aggregate and proliferate to form SGm (FIG. 1C).
The glutathione assay was used to measure glutathione levels at various time points post-radiation to determine the optimal time point for detecting differences between 0 Gy and 15 Gy. Based on the data, the greatest signal separation was measured at 4 days post-irradiation (FIG. 9). This timepoint is similar to previous reports on decreases in glutathione post-radiation and was used for all experiments moving forward (Meeks L et al., Physiological Genomics, 2021, 53: 85-98).
The dose response to WR-1065 was examined to determine effective concentrations of WR-1065 to prevent the reduction of glutathione levels post-radiation. A SGm tissue chip was cultured for 4 days to allow spheres to form. The chip was then treated with WR-1065 30 minutes before and during radiation, followed by drug wash out with media 30 minutes post-radiation (FIG. 2A). This dosing scheme is consistent with the use of Amifostine clinically and with previous work. The glutathione assay was performed at 4 days post-radiation (FIG. 2A). […] Moreover, it is clinically relevant as 15-30 minutes before radiation, patients are administered Amifostine intravenously at 200 mg/m (Escobar A et al., IntechOpen, 2019, pp. 15-37; Eisbruch A, J Clin Oncol, 2011, 29: 119-121; Bardet, E. et al. Semin Oncol, 2002, 29, 57-60). Assuming an average adult body surface area of 17,000 cm^2 and a blood volume of 1.35 gallons (5.1 liters), Amifostine is administered at 300 μM (Mosteller, R. D. N Engl J Med 317, 1098 (1987)).
The glutathione and senescence assays were used to screen a library of FDA-approved drugs (Selleck Chemicals) at 100 μM. Drugs were first screened using the glutathione assay according to the timeline depicted in FIG. 2A. Any compound resulting in statistically similar glutathione levels compared to 0 Gy control was considered a hit (FIG. 4, grey circles). Hits with the glutathione assay were then tested with the senescence assay and considered a “double hit” if senescence levels were statistically similar to levels at 0 Gy (FIG. 4, black circles). […] While this hit rate is higher than many other drug screening reports (0.1-0.3%), this may be due to the statistical rigor afforded by the tissue chip format (Blanchard, C et al., Antimicrob Agents Chemother 2016, 60, 862-872; Colquhoun, J. M et al., Antibiotics (Basel) 2019, 8, 48). Additionally, phenotypic screens generally have higher hit rates than target-based screens (>1%) (Moffat, J. G et al., Nature Reviews Drug Discovery 2017, 16, 531-543; Rottman, M et al., Science 2010, 329, 1175-1180).
Mice were euthanized and the submandibular glands (SMG) were removed and chopped with a razor blade for 5 min. The tissue was then incubated in Hank's buffered salt solution (HBSS) containing 15 mM HEPES, 50 U/mL collagenase type II (Thermo Fischer 17101015), and 100 U/mL hyaluronidase (Sigma Aldrich H3506) at 37 °C for 30 min. Cells were centrifuged, then resuspended in HBSS with 15 mM HEPES and passed through 100 μm and 20 μm mesh filters to isolate clusters between 20-100 μm. The digestion protocol produces cell cluster sizes evenly distributed between 20 to 100 μm (Song, Y et al., Advanced Healthcare Materials). […]

Counter-ions that a name gives are not always drawn.

On to `COC(=O)Nc1nc2ccc([S+]([O-])c3ccccc3)cc2[nH]1` (stereo not shown) [Oxfendazole], for which the “Glutathione normalized mean intensity” value came out at 0.6.

In the case of `CCCOc1ccc2nc(NC(=O)OC)[nH]c2c1` [Oxibendazole], the “Glutathione normalized mean intensity” value worked out at 0.747.

Regarding `CC(C)(S)[C@@H](N)C(=O)O` [Penicillamine (Cuprimine)], the “Glutathione normalized mean intensity” value came out at 0.7681.

Regarding `O=C1c2ccccc2C(=O)C1c1ccccc1` [Phenindione (Rectadione)], the “Glutathione normalized mean intensity” value worked out at 0.6802.

As to `[I-].[K+]` [Potassium iodide], the “Glutathione normalized mean intensity” value was determined as 0.386.

For the molecule `CC(C(=O)O)c1ccc2c(c1)Cc1cccnc1O2` (stereo not shown) [Pranoprofen], the “Glutathione normalized mean intensity” value is 0.7582.

On to `CC(=O)[C@H]1CC[C@H]2[C@@H]3CC=C4C[C@@H](O)CC[C@]4(C)[C@H]3CC[C@]12C` [Pregnenolone], for which the “Glutathione normalized mean intensity” value is 0.6057.

Turning to `CCC1(c2ccccc2)C(=O)NCNC1=O` [Primidone (Mysoline)], the “Glutathione normalized mean intensity” value is recorded as 0.8725.

Regarding `CCCOc1ccc(C(=O)OCCN(CC)CC)cc1N` [Proparacaine HCl], the “Glutathione normalized mean intensity” value was 0.7045.

As for `CCCc1cc(C(N)=S)ccn1` [Protionamide (Prothionamide)], the “Glutathione normalized mean intensity” value amounted to 0.6328.

For `CCOC(=O)[C@H](CCc1ccccc1)N[C@@H](C)C(=O)N1[C@H](C(=O)O)C[C@@H]2CCC[C@@H]21` [Ramipril (Altace)], the “Glutathione normalized mean intensity” value was 0.7145.

As for `CNC(=C[N+](=O)[O-])NCCSCc1ccc(CN(C)C)o1` [Ranitidine (Zantac)], the “Glutathione normalized mean intensity” value is given as 0.4295.

For the molecule `COc1ccccc1OCC(O)CN1CCN(CC(=O)Nc2c(C)cccc2C)CC1` (stereo not shown) [Ranolazine (Ranexa)], the “Glutathione normalized mean intensity” value was found to be 0.5015.

As to `CO[C@H]1/C=C/O[C@@]2(C)Oc3c(C)c(O)c4c(O)c(c5c(nc6cc(C)ccn65)c4c3C2=O)NC(=O)/C(C)=C\C=C\[C@H](C)[C@H](O)[C@@H](C)[C@@H](O)[C@@H](C)[C@H](OC(C)=O)[C@@H]1C` [Rifaximin (Xifaxan)], the “Glutathione normalized mean intensity” value amounted to 0.3977.

`CC(N)C12CC3CC(CC(C3)C1)C2` (stereo not shown) [Rimantadine (Flumadine)]: the “Glutathione normalized mean intensity” value came to 0.3987.

As for `O=P(O)(O)C(O)(Cc1cccnc1)P(=O)(O)O` [Risedronic acid (Actonel)], the “Glutathione normalized mean intensity” value was determined as 0.6565.

Turning to `CC(=O)OCC(=O)NCCCOc1cccc(CN2CCCCC2)c1` [Roxatidine acetate HCl], the “Glutathione normalized mean intensity” value turned out to be 0.4245.

As to `CCC(C)(C)C(=O)O[C@H]1C[C@@H](C)C=C2C=C[C@H](C)[C@H](CC[C@@H]3C[C@@H](O)CC(=O)O3)[C@H]21` [Simvastatin (Zocor)], the “Glutathione normalized mean intensity” value came out at 0.1568.

With `C[C@@H]1CN(c2c(F)c(N)c3c(=O)c(C(=O)O)cn(C4CC4)c3c2F)C[C@H](C)N1` [Sparfloxacin], the “Glutathione normalized mean intensity” value was 0.7607.

As for `CC1(C)[C@H](C(=O)O)N2C(=O)C[C@H]2S1(=O)=O` [Sulbactam], the “Glutathione normalized mean intensity” value is given as 0.6491.

For `Cc1nnc(NS(=O)(=O)c2ccc(N)cc2)s1` [Sulfamethizole (Proklar)], the “Glutathione normalized mean intensity” value is 0.4719.

Turning to `Cc1cc(NS(=O)(=O)c2ccc(N)cc2)no1` [Sulfamethoxazole], the “Glutathione normalized mean intensity” value is 0.8442.

As to `COc1cc(NS(=O)(=O)c2ccc(N)cc2)nc(OC)n1` [Sulphadimethoxine], the “Glutathione normalized mean intensity” value is 0.8846.

Regarding `COc1cc([C@@H]2c3cc4c(cc3[C@@H](O[C@@H]3O[C@@H]5CO[C@@H](c6cccs6)O[C@H]5[C@H](O)[C@H]3O)[C@H]3COC(=O)[C@H]23)OCO4)cc(OC)c1O` [Teniposide (Vumon)], the “Glutathione normalized mean intensity” value was found to be 0.4095.

`Clc1ccc(C(Cn2ccnc2)OCc2ccsc2Cl)c(Cl)c1` (stereo not shown) [Tioconazole]: the “Glutathione normalized mean intensity” value was 0.6333.

Turning to `Cc1c(Cl)cccc1Nc1ccccc1C(=O)O` [Tolfenamic acid], the “Glutathione normalized mean intensity” value is given as 0.8008.

As to `NCC1CCC(C(=O)O)CC1` (stereo not shown) [Tranexamic acid (Transamin)], the “Glutathione normalized mean intensity” value was found to be 0.7568.

As for `O=c1[nH]c(=O)n([C@H]2C[C@H](O)[C@@H](CO)O2)cc1C(F)(F)F` [Trifluridine (Viroptic)], the “Glutathione normalized mean intensity” value came out at 0.7468.

As for `CN1[C@@H]2CC[C@H]1C[C@@H](OC(=O)c1c[nH]c3ccccc13)C2` [Tropisetron], the “Glutathione normalized mean intensity” value turned out to be 0.5993.

Consider `CC(C)[C@H](N)C(=O)OCCOCn1cnc2c(=O)[nH]c(N)nc21` [Valaciclovir HCl], for which the “Glutathione normalized mean intensity” value is reported as 0.6362.

With `CCCCC(=O)N(Cc1ccc(-c2ccccc2-c2nn[nH]n2)cc1)[C@H](C(=O)O)C(C)C` [Valsartan (Diovan)], the “Glutathione normalized mean intensity” value is given as 0.6351.

As for `Nc1ncnc2c1ncn2[C@@H]1O[C@H](CO)[C@@H](O)[C@@H]1O` [Vidarabine (Vira-A)], the “Glutathione normalized mean intensity” value worked out at 0.3742.

Take Bacitracin zinc: the “Glutathione normalized mean intensity” value is recorded as 0.6175.

On to Vitamin B12, for which the “Glutathione normalized mean intensity” value worked out at 0.7029.

For the origin of these results see patent publication US20260345555A1, “Compositions and Methods for Protecting Salivary Glands from Off-Target Radiation Damage” (University of Rochester, priority 2022, published 2026).
